Target: human μ opiate receptor (Homo sapiens, UniProt P35372)
Assay: μ opiate receptor binding assay, membrane preparation of CHO-K1 cells, [3H]-naloxone (or DAMGO) displacement
Conditions: radioligand [3H]-naloxone 1 nmole/l; Cheng-Prusoff

Chain of human μ opiate receptor (P35372 whole entry): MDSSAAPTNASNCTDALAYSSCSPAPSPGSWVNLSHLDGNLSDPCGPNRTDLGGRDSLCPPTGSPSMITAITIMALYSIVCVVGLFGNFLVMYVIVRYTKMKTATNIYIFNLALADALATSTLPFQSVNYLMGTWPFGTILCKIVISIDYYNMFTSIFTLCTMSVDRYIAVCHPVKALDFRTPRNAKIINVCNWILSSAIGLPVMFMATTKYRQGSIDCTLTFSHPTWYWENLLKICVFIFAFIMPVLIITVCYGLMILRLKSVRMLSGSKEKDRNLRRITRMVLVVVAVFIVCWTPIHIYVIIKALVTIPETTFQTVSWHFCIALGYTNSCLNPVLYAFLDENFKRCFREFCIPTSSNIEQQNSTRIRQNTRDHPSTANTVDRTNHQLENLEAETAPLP

## CN(C)C1(c2ccccc2)CCC(NC(=O)N2CCC(C3C=Nc4ccc(F)cc43)CC2)CC1 (stereo not shown) [Example 34, 4-(5-fluoro-1H-indol-3-yl)piperidine-1-carboxylic acid-(4-dimethylamino-4-phenylcyclohexyl)-amide]
  Ki: 120 nM

Reference: patent US7759385B2, “4-substituted 1-aminocyclohexane compounds for utilization as ORL1-receptor and mu-opiate receptor ligands” (priority 2002, dated 2010)
